Values quoted from earlier work in patent publication US11203597B2, “Crystalline spirocyclic compound, a dosage form containing, a method for using in treatment of disease, and a method for recrystallizing” (Altavant Sciences GmbH, priority 2018, dated 2021).

Target: T1, TPH1 (Mus musculus, UniProt P17532)
T1 construct: host or cells: mice (in vivo)
T1 sequence (P17532 1-447): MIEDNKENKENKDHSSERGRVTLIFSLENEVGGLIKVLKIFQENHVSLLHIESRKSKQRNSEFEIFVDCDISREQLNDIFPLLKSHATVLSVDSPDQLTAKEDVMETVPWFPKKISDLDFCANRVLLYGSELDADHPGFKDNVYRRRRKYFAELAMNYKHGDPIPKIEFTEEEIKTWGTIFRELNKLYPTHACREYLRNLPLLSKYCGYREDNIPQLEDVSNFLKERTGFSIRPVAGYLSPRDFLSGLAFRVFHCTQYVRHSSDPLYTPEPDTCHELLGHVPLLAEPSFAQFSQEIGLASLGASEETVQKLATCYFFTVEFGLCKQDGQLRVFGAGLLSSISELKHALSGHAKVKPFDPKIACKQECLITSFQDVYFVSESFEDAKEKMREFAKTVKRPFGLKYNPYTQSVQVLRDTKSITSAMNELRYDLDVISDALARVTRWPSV
Conditions: U.S. Pat. No. 9,199,994, Example 63i and Table 27; cited from earlier work

In the case of `CCOC(=O)[C@@H]1CC2(CCN(c3cc(O[C@H](c4ccc(Cl)cc4-c4ccccc4)C(F)(F)F)nc(N)n3)CC2)CN1` [(S)-ethyl 8-(2-amino-6-((R)-1-(5-chloro-[1,1′-biphenyl]-2-yl)-2,2,2-trifluoroethoxy)pyrimidin-4-yl)-2,8-diazaspiro[4.5]decane-3-carboxylate], the “efficacy in inhibiting TPH1 in mice” value is listed as “demonstrated”.
